Experimental data from patent US4859658A, “Compound compositions with improved analgesic antipyretic and anti-inflammatory activity” (Ricerfarma S.R.L., priority 1987, dated 1989).
Read-outs that look alike come from different tables or passages of the source.

How the values were obtained:
[1] = cited from earlier work; for ED50: each compound alone, as reported by Maruyama Y. et al
[2] = cited from earlier work; for LD50: in vivo
yeast-induced fever = test: Anti-pyretic effect (yeast-induced) test in rats; assay type: in vivo, rat; settings: oral gavage
Protocol: Anti-pyretic effect of Combination of Thiocetamol with Aspirin
(yeast-induced) test in rats
I. TEST MATERIALS: Thioacetamol, Aspirin
1. Fever in test animals was induced by subcutaneous
injection of yeast (10% in saline). Basal
rectal temperature (BRT) was determined in all
test animals with the aid of a YSI thermistor probe
2. Four hours after the yeast injection a test drug
suspended in 1% methyl cellulose (MC), was
administered by oral gavage to groups of
male rats (8 rats/group). Controls were
3. Measurements of rectal temperatures (ERT) in
response to the various treatments, were
carried out at 1, 3 and 5 hours after
the test drug administration.
Evaluation of anti-pyretic activity was based on the
temperature difference (Δt) between BRT and ERT at
each of the three respective test periods
for each treatment group.
Data was calculated by ranking Δt values obtained in
test drug-treated and control rats and expressed

[3] = single oral dose, cited from earlier work
[4] = tested on: carrageenin-induced oedema; test: Anti-inflammatory effect, rat paw oedema test; assay type: in vivo; settings: oral gavage
Protocol: I. TEST MATERIALS: Thioacetamol, Indomethacin (Indomet)
The test drugs, suspended in 1% methyl cellulose (MC),
were administered by oral gavage to groups of male rats
(6 rats/group). Controls were given MC only.
2. Three hours following the test drug administration,
0.1 ml carrageenin (1% in saline) was injected
sub-plantar into the right hind paw. Identically
saline-injected left hind paw served
3. Readings were taken on each paw 3 hours following
injection of the test drug. The volume of both
hind paws was measured with an Hg-displacement
Volumeter (Huge, Basile, Italy).
Evaluation of anti-inflammatory activity was based on
the difference in volume (ΔV) between
the right (carrageenin-induced oedema) and left
(saline-control) hind paws.
Data was calculated by ranking ΔV values obtained
in drug-treated and control rats and expressed
percent increase over control for normal

[5] = in vivo, 500 mg/kg
Description: It must be also pointed out that the combination of very low doses of each component is not toxic.

hepatic parenchyma = settings: compared with parent paracetamol; cited from earlier work

SMILES: CC(C)Cc1ccc(C(C)C(=O)O)cc1 (stereo not drawn) [Ibuprofen]
- ED50 [1]: 60 mg/kg

SMILES: CC(=O)Oc1ccccc1C(=O)O [Aspirin]
- ED50 [1]: 500 mg/kg
- LD50 [2]: 1000 mg/kg
- Δt at 1 hour (yeast-induced fever; 50 mg/kg): 86%
- Δt at 3 hour (yeast-induced fever; 50 mg/kg): 83%
- Δt at 5 hour (yeast-induced fever; 50 mg/kg): 67%
- Δt at 1 hour (yeast-induced fever; 100 mg/kg): 67%
- Δt at 3 hour (yeast-induced fever; 100 mg/kg): 55%
- Δt at 5 hour (yeast-induced fever; 100 mg/kg): 56%
- Δt at 1 hour (yeast-induced fever; 200 mg/kg): 49%
- Δt at 3 hour (yeast-induced fever; 200 mg/kg): 29%
- Δt at 5 hour (yeast-induced fever; 200 mg/kg): 19%
- Gastric lesions ([3]; 100 mg/kg): 0%
- Intestinal lesions ([3]; 100 mg/kg): 0%
- Gastric lesions ([3]; 300 mg/kg): 60%
- Intestinal lesions ([3]; 300 mg/kg): 10%
- Gastric lesions ([3]; 600 mg/kg): 100%
- Intestinal lesions ([3]; 600 mg/kg): 10%

SMILES: COc1ccc2c(c1)c(CC(=O)O)c(C)n2C(=O)c1ccc(Cl)cc1 [Indomethacin]
- ΔV (percent over control) ([4]; 1 mg/kg): 85%
- ΔV (percent over control) ([4]; 2 mg/kg): 63%
- ΔV (percent over control) ([4]; 4 mg/kg): 58%
- anti-inflammatory dose (ED50) ([1]; as reported): 3.5 mg/kg
- ED50 [1]: 3.6 mg/kg
- LD50 [2]: 15.2 mg/kg
- Gastric lesions ([3]; 3 mg/kg): 0%
- Intestinal lesions ([3]; 3 mg/kg): 0%
- Gastric lesions ([3]; 10 mg/kg): 100%
- Intestinal lesions ([3]; 10 mg/kg): 30%

SMILES: CC(=O)Nc1ccc(OC(=O)c2cccs2)cc1 [Thiocetamol, p-acetamidophenyl thiophene-2-carboxylate]
- ΔV (percent over control) ([4]; 150 mg/kg): 90%
- ΔV (percent over control) ([4]; 300 mg/kg): 70%
- ΔV (percent over control) ([4]; 600 mg/kg): 62%
- toxic effects [5]: without any toxic effects
- acute median lethal dose (LD50) ([2]; compared with parent paracetamol, in words): far lower than that of the parent paracetamol
- LD50 [2]: around 2000 mg/kg
- Δt at 1 hour (yeast-induced fever; 75 mg/kg): 86%
- Δt at 3 hour (yeast-induced fever; 75 mg/kg): 91%
- Δt at 5 hour (yeast-induced fever; 75 mg/kg): 91%
- Δt at 1 hour (yeast-induced fever; 150 mg/kg): 47%
- Δt at 3 hour (yeast-induced fever; 150 mg/kg): 96%
- Δt at 5 hour (yeast-induced fever; 150 mg/kg): 84%
- Δt at 1 hour (yeast-induced fever; 300 mg/kg): 26%
- Δt at 3 hour (yeast-induced fever; 300 mg/kg): 40%
- Δt at 5 hour (yeast-induced fever; 300 mg/kg): 61%
- toxicity towards the hepatic parenchyma (hepatic parenchyma): remarkable lower toxicity towards the hepatic parenchyma

SMILES: O=C(O)Cc1ccccc1Nc1c(Cl)cccc1Cl [Diclofenac]
- ED50 [1]: 5 mg/kg
